One block for each molecule: values may come before it. Ends that are not written are not given here.
Assays:
[1] = test system: mitochondria isolated from 2LMP cells; test: Permeabilization of mitochondrial outer membrane (MOMP), Cytochrome C and Smac release by Western blot; format: biochemical, human; conditions: agent alone at indicated concentrations, 100 mM KCl buffer, 37°C, 60 min, Figure 3A
Procedure: Mitochondria were isolated from breast cancer cells. Cells were harvested by centrifugation at 1200 g (Microcentrifuge 5415R from Eppendorf) for 5 min at 4°C and then washed with ice-cold PBS. Cell pellets were resuspended in 400 μl of mitochondria isolation buffer (MIB: pH 7.4; 0.1 mM EDTA, 10 mM Tris–HCl, 250 mM Sucrose) freshly added 1 mM PMSF and Protease Inhibitor Cocktail (Roche). Cell suspensions were then homogenized with 40 strokes in a Dounce Tissue Grinder on ice and centrifuged at 1200 g for 10 min at 4°C. Supernatants were centrifuged at 12000 g for 10 min at 4°C. Pellet enriched in mitochondria was washed three times with MIB, spun down at 12000 g for 10 min at 4°C. […] Protein concentrations were determined using Bradford Protein Assay (Protein Assay Kit II, Cat# 500–0002, Bio-Rad). […]
Supernatant samples and mitochondrial pellet samples were subjected to protein separation by SDS-PAGE. After transfer to Polyvinylidene fluoride (PVDF) membranes, Cytochrome C, Smac proteins and loading control (Cytochrome C Oxidase IV, COX IV) were analyzed using the following primary antibodies: anti-Cytochrome C polyclonal antibody (1:500; #4272; Cell Signaling Techonology), anti-Smac/DIABLO polyclonal antibody (1:500; PC574; Calbiochem), anti-COX IV monoclonal antibody (3E11; 1:1000; #4850; Cell Signaling Techonology). […]

Mcl-1 [2] = molecular target: T1, Mcl-1 (Homo sapiens, UniProt Q07820); test: SPR competitive solution binding assay (immobilized Bim BH3 peptide); conditions: read-out: SPR Mcl-1 IC50[nM] ± SD
T1 construct: encoding amino acid residues of 171–327; 8xHis (pHis-TEV vector) (N); made in house; host or cells: E. coli BL21(DE3)
T1 sequence (Q07820 171-327): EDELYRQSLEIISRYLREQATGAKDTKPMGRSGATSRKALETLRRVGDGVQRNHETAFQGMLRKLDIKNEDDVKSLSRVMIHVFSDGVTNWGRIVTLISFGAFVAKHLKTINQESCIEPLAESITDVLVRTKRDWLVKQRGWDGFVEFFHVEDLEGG
Procedure: The Mcl-1fragment (NM_021960) encoding amino acid residues of 171–327 was cloned into the pHis-TEV vector. Mcl-1 protein with an N-terminal 8×His tag was produced in E. coli BL21(DE3).
(§1) Determination of kon, koff and Kd were calculated by simultaneous non-linear regression using BIAevaluation software (BIAcore Life Sciences).
(§2) IC50 values were determined by Non-linear Least Squares analysis using Graph Pad Prism 5.0 software.

Mcl-1 [3] = molecular target: T1, Mcl-1; test: FP competitive binding assay (FAM-Bid tracer); conditions: read-out: FP assay Mcl-1 Ki[nM] ± SD
Bcl-xL [4] = molecular target: T2, Bcl-xL (Homo sapiens, UniProt Q07817, DEL45-85); test: SPR competitive solution binding assay (immobilized Bim BH3 peptide); conditions: read-out: SPR Bcl-xL IC50[nM] ± SD
T2 construct: 8xHis (pHis-TEV vector) (N); made in house; host or cells: E. coli BL21(DE3)
T2 sequence (Q07817 with tags, fused parts or gaps DEL45-85): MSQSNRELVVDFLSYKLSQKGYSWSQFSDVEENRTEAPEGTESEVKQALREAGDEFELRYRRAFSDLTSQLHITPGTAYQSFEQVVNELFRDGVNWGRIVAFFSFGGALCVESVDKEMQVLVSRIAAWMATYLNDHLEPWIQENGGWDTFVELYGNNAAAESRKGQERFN
Procedure: Lysis buffer contained 50 mM Tris, pH 7.5, 200 mM NaCl, 0.1% BME and Leupectin/Aprotin, while protein was eluted in buffer containing 20 mM Tris, pH7.5, 150 mM NaCl and 5 mM DTT.
as §1, §2

Bcl-xL [5] = molecular target: T2, Bcl-xL; test: FP competitive binding assay (FAM-Bak tracer); conditions: read-out: FP assay Bcl-xL Ki[nM] ± SD

Molecule: CN(C)CC[C@H](CSc1ccccc1)Nc1ccc(S(=O)(=O)NC(=O)c2ccc(N3CCN(Cc4ccccc4-c4ccc(Cl)cc4)CC3)cc2)cc1[N+](=O)[O-] [ABT-737]
Cytochrome C and Smac release from 2LMP mitochondria [1]: effectively induced Cytochrome C and Smac release

Molecule: CSCC[C@H](NC(=O)[C@H](CCCNC(=N)N)NC(=O)[C@H](CCCNC(=N)N)NC(=O)[C@H](CC(C)C)NC(=O)[C@H](CCC(=O)O)NC(=O)[C@H](CCCNC(=N)N)NC(=O)CNC(=O)[C@H](Cc1ccc(O)cc1)NC(=O)[C@H](CCCNC(=N)N)NC(=O)[C@H](CCC(N)=O)NC(=O)[C@H](C)NC(=O)[C@H](C)NC(=O)[C@H](Cc1c[nH]c2ccccc12)NC(=O)[C@H](CC(C)C)NC(=O)[C@@H](N)CC(N)=O)C(=O)N[C@@H](CO)C(=O)N[C@@H](CC(=O)O)C(=O)N[C@@H](CCC(=O)O)C(=O)N[C@@H](Cc1ccccc1)C(=O)N[C@H](C(=O)N[C@@H](CC(=O)O)C(=O)N[C@@H](CO)C(=O)N[C@@H](Cc1ccccc1)C(=O)N[C@@H](CCCCN)C(=O)N[C@@H](CCCCN)C(=O)NCC(=O)O)C(C)C [Bad]
IC50 (Mcl-1 [2]): > 30000 nM
Ki (Mcl-1 [3]): > 20000 nM

IC50 (Bcl-xL [4]): > 30000 nM
Ki (Bcl-xL [5]): > 10000 nM
Molecule: PAELEVECATQLRRFGDKLNFRQKLL [Noxa]

Reference: article PMC3717276, “Optimization and validation of mitochondria-based functional assay as a useful tool to identify BH3-like molecules selectively targeting anti-apoptotic Bcl-2 proteins” (BMC Biotechnology, 2013)
